{"source": "patent US11767310B2", "about": "“Nicotinamide RIPK1 inhibitors” (AbbVie Inc., priority 2021, dated 2023)", "key": {"[1]": {"test_system": "non-mutant kinases", "test": "Selectivity score (S-score) from kinase binding screen", "parameters": "species or system human", "details": "Screening Concentration 100 nM; 403 non-mutant kinases", "procedure": "Based on the binding affinities in Table D, a selectivity score (S-score) was calculated for each compound as a quantitative measure of compound selectivity. The S-score is calculated by dividing the number of kinases that a compound binds to by the total number of distinct kinases tested, excluding mutant variants. The selectivity score value can be calculated using % Ctrl as a potency threshold, as shown below, and provides a quantitative method of describing compound selectivity to facilitate comparison of different compounds.\nS(10)=(number of non-mutant kinases with % Ctrl<[…])/(number of non-mutant kinases tested).\n[…]=(number of non-mutant kinases with % Ctrl<[…])/(number of non-mutant kinases tested).\n[…]=(number of non-mutant kinases with % Ctrl<1)/(number of non-mutant kinases tested)."}, "[2]": {"target": "AAK1 (Homo sapiens (Human), UniProt Q2M2I8)", "sequence (Q2M2I8 whole entry)": "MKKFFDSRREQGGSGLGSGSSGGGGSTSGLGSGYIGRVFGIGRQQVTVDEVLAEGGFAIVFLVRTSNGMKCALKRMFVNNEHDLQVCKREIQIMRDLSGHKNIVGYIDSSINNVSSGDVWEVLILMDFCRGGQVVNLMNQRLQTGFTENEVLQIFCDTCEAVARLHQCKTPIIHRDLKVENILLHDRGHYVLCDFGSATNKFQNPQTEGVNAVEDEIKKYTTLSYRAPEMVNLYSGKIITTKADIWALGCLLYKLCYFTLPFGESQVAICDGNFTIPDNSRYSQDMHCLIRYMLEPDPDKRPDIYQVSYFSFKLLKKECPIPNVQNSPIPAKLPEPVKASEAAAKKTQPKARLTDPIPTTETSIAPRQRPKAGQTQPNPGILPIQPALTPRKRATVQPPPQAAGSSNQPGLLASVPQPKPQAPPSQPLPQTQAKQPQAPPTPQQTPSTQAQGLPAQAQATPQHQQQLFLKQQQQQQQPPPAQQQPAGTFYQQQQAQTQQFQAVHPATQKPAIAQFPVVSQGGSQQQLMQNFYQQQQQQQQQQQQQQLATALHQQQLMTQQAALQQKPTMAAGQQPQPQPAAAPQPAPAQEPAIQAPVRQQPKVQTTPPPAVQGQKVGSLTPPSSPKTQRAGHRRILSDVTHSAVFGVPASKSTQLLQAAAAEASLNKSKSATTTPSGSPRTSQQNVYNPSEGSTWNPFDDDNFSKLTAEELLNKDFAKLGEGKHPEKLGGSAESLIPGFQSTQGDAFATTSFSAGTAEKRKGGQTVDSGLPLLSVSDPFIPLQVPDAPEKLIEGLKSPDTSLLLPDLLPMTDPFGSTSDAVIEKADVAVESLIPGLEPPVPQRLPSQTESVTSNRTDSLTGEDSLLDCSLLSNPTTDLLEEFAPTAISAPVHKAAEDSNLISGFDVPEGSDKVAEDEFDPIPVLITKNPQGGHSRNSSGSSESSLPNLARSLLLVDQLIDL", "test": "Kinase binding screen", "details": "read-out: Percent Control at 100 nM Compound Concentration"}, "[3]": {"target": "ABL1(T315I)-nonphosphorylated (Homo sapiens (Human), UniProt P00519, T315I)", "test": "Kinase binding screen", "details": "read-out: Percent Control at 100 nM Compound Concentration"}, "[4]": {"target": "ABL1(Y253F)-pho sphorylated (Homo sapiens (Human), UniProt P00519, Y253F)", "test": "Kinase binding screen", "details": "read-out: Percent Control at 100 nM Compound Concentration"}, "[5]": {"target": "ACVRL1 (Homo sapiens (Human), UniProt P37023)", "test": "Kinase binding screen", "details": "read-out: Percent Control at 100 nM Compound Concentration"}, "[6]": {"target": "ALK(L1196M) (Homo sapiens (Human), UniProt Q9UM73, L1196M)", "test": "Kinase binding screen", "details": "read-out: Percent Control at 100 nM Compound Concentration"}, "[7]": {"target": "CSNK1A1L (Homo sapiens (Human), UniProt Q8N752)", "test": "Kinase binding screen", "details": "read-out: Percent Control at 100 nM Compound Concentration"}, "[8]": {"target": "CSNK1D (Homo sapiens (Human), UniProt P48730)", "test": "Kinase binding screen", "details": "read-out: Percent Control at 100 nM Compound Concentration"}, "[9]": {"target": "CSNK1G3 (Homo sapiens (Human), UniProt Q9Y6M4)", "test": "Kinase binding screen", "details": "read-out: Percent Control at 100 nM Compound Concentration"}, "[10]": {"target": "DDR1 (Homo sapiens (Human), UniProt Q08345)", "sequence (Q08345 19-913)": "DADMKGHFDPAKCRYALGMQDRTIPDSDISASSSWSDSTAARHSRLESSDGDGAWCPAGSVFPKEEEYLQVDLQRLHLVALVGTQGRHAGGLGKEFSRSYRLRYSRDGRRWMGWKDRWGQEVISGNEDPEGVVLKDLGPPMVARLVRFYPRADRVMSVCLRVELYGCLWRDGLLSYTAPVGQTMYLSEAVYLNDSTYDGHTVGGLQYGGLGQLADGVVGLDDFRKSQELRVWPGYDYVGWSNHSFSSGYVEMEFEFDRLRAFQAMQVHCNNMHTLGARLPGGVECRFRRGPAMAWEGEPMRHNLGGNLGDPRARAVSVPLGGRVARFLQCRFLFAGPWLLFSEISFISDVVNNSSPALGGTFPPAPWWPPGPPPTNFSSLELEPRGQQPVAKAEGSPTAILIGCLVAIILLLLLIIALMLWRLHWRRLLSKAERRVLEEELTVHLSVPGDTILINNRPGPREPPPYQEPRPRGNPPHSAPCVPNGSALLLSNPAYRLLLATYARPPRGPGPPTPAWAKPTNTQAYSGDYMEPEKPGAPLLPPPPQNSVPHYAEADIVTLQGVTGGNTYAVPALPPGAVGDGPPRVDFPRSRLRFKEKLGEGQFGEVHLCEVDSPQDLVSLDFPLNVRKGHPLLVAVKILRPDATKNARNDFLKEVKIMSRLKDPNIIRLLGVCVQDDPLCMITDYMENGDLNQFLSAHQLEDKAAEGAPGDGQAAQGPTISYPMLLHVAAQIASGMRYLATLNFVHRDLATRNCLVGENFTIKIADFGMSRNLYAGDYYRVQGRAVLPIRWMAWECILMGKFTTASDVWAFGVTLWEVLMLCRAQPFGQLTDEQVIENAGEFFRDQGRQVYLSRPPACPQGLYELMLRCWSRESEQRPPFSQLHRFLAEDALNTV", "test": "Kinase binding screen", "details": "read-out: Percent Control at 100 nM Compound Concentration"}, "[11]": {"target": "ERBB3 (Homo sapiens (Human), UniProt P21860)", "sequence (P21860 20-1342)": "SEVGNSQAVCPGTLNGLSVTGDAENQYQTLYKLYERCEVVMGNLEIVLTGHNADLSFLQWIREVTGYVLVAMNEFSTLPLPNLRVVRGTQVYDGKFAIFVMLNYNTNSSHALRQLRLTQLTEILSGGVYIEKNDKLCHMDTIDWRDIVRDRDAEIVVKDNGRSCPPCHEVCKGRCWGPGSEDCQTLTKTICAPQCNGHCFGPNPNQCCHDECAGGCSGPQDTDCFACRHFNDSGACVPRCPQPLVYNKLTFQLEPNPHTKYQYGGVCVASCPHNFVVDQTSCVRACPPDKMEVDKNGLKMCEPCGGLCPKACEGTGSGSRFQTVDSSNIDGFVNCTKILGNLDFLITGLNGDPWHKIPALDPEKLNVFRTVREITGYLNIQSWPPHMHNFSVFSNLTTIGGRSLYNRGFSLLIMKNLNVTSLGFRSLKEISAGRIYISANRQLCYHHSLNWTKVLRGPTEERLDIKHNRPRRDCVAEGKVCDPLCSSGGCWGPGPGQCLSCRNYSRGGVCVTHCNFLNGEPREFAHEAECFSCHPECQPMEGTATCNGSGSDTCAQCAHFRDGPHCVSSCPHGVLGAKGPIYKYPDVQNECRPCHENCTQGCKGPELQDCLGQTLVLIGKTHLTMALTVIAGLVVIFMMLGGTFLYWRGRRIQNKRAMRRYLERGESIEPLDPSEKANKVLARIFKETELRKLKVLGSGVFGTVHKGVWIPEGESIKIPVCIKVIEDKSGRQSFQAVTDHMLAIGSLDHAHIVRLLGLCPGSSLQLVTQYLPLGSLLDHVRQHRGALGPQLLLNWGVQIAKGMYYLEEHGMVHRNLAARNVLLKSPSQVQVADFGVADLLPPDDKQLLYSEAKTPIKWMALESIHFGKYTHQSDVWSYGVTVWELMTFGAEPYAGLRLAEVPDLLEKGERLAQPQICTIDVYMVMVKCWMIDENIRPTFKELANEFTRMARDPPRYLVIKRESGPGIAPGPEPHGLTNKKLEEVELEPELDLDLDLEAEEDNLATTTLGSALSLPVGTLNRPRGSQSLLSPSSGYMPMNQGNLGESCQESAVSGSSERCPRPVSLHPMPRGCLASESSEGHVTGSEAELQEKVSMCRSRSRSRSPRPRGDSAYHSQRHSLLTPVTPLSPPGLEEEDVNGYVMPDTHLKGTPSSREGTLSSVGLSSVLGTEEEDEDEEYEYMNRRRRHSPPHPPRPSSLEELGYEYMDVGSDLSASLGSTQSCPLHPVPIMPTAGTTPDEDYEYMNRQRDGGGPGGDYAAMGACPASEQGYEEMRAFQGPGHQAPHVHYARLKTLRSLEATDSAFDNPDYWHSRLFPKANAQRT", "test": "Kinase binding screen", "details": "read-out: Percent Control at 100 nM Compound Concentration"}, "[12]": {"target": "FES (Homo sapiens (Human), UniProt P07332)", "test": "Kinase binding screen", "details": "read-out: Percent Control at 100 nM Compound Concentration"}, "[13]": {"target": "IRAK3 (Homo sapiens (Human), UniProt Q9Y616)", "test": "Kinase binding screen", "details": "read-out: Percent Control at 100 nM Compound Concentration"}, "[14]": {"target": "JNK3 (Homo sapiens (Human), UniProt P53779)", "test": "Kinase binding screen", "details": "read-out: Percent Control at 100 nM Compound Concentration"}, "[15]": {"target": "KIT (Homo sapiens (Human), UniProt P10721)", "test": "Kinase binding screen", "details": "read-out: Percent Control at 100 nM Compound Concentration"}, "[16]": {"target": "LRRK2(G2019S) (Homo sapiens (Human), UniProt Q5S007, G2019S)", "test": "Kinase binding screen", "details": "read-out: Percent Control at 100 nM Compound Concentration"}, "[17]": {"target": "MAK (Homo sapiens (Human), UniProt P20794)", "test": "Kinase binding screen", "details": "read-out: Percent Control at 100 nM Compound Concentration"}, "[18]": {"target": "MAP3K2 (Homo sapiens (Human), UniProt Q9Y2U5)", "test": "Kinase binding screen", "details": "read-out: Percent Control at 100 nM Compound Concentration"}, "[19]": {"target": "MARK1 (Homo sapiens (Human), UniProt Q9P0L2)", "sequence (Q9P0L2 whole entry)": "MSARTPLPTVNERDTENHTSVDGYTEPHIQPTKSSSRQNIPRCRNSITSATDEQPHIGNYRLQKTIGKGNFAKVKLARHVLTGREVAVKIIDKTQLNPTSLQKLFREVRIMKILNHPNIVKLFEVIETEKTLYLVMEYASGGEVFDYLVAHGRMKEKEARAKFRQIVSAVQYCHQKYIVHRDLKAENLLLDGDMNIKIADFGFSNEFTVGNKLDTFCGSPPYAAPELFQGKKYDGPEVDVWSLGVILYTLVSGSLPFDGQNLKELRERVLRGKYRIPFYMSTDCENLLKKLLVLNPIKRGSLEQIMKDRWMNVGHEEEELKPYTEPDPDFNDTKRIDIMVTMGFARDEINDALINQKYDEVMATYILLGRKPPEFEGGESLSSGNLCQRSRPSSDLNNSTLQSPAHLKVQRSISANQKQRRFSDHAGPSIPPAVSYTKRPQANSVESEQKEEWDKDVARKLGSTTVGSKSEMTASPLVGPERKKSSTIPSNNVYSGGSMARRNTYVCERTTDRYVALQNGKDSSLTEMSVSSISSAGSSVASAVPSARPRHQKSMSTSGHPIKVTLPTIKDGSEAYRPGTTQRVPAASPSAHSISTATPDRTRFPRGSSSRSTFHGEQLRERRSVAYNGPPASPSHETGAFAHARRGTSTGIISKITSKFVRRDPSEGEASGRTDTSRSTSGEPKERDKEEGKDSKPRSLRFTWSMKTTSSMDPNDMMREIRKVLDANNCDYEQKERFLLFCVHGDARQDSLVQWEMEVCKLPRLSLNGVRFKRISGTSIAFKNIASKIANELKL", "test": "Kinase binding screen", "details": "read-out: Percent Control at 100 nM Compound Concentration"}, "[20]": {"target": "NEK4 (Homo sapiens (Human), UniProt P51957)", "test": "Kinase binding screen", "details": "read-out: Percent Control at 100 nM Compound Concentration"}, "[21]": {"target": "OSR1 (Homo sapiens (Human), UniProt O95747)", "test": "Kinase binding screen", "details": "read-out: Percent Control at 100 nM Compound Concentration"}, "[22]": {"target": "p38-gamma (Homo sapiens (Human), UniProt P53778)", "test": "Kinase binding screen", "details": "read-out: Percent Control at 100 nM Compound Concentration"}, "[23]": {"target": "PHKG1 (Homo sapiens (Human), UniProt Q16816)", "test": "Kinase binding screen", "details": "read-out: Percent Control at 100 nM Compound Concentration"}, "[24]": {"target": "PIP5K1C (Homo sapiens (Human), UniProt O60331)", "test": "Kinase binding screen", "details": "read-out: Percent Control at 100 nM Compound Concentration"}, "[25]": {"target": "SRPK1 (Homo sapiens (Human), UniProt Q96SB4)", "test": "Kinase binding screen", "details": "read-out: Percent Control at 100 nM Compound Concentration"}, "[26]": {"target": "TAOK3 (Homo sapiens (Human), UniProt Q9H2K8)", "sequence (Q9H2K8 whole entry)": "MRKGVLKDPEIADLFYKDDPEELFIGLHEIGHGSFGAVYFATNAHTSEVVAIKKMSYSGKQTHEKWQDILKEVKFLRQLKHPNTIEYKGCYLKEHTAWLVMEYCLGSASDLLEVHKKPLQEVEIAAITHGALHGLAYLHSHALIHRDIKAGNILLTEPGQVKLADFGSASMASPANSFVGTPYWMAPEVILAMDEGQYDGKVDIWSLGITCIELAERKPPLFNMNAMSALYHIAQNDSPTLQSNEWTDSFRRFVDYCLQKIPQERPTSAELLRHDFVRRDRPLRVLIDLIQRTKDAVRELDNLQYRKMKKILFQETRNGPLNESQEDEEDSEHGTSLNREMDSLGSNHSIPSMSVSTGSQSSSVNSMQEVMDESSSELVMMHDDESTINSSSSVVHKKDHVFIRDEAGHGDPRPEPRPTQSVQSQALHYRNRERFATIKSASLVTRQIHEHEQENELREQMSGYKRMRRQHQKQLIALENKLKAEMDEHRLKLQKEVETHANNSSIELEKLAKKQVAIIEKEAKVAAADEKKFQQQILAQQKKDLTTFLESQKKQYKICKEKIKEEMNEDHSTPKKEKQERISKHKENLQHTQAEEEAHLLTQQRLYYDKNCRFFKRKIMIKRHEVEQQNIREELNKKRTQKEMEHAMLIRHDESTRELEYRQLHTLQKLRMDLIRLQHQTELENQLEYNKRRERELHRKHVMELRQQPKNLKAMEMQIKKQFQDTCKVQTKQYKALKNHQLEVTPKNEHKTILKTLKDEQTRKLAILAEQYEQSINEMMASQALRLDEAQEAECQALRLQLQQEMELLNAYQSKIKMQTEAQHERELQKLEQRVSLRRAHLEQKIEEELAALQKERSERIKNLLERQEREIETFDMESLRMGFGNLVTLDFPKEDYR", "test": "Kinase binding screen", "details": "read-out: Percent Control at 100 nM Compound Concentration"}}, "note": "Where two headings read alike, the source gives them in different places.", "data": [{"smiles": "CN(C[C@@H](O)Cc1ccccc1)C(=O)c1cncc(C#Cc2cnn(C(F)F)c2)c1", "note": "[Example 2, (S)-5-((1-(difluoromethyl)-1H-pyrazol-4-yl)ethynyl)-N-(2-hydroxy-3-phenylpropyl)-N-methylnicotinamide]", "values": [{"measurement": "Number of Hits S(1)", "setting": "[1]", "value": 0}, {"measurement": "Number of Hits S(10)", "setting": "[1]", "value": 1}, {"measurement": "Number of Hits S(35)", "setting": "[1]", "value": 3}, {"measurement": "Selectivity Score S(10)", "setting": "[1]", "value": 0.002}, {"measurement": "Selectivity Score S(35)", "setting": "[1]", "value": 0.007}, {"measurement": "remaining activity at 0.1 µM", "setting": "[2]; AAK1", "value": 96, "unit": "%"}, {"measurement": "remaining activity at 0.1 µM", "setting": "[3]; ABL1(T315I)-nonphosphorylated", "value": 100, "unit": "%"}, {"measurement": "remaining activity at 0.1 µM", "setting": "[4]; ABL1(Y253F)-pho sphorylated", "value": 100, "unit": "%"}, {"measurement": "remaining activity at 0.1 µM", "setting": "[5]; ACVRL1", "value": 100, "unit": "%"}, {"measurement": "remaining activity at 0.1 µM", "setting": "[6]; ALK(L1196M)", "value": 100, "unit": "%"}, {"measurement": "remaining activity at 0.1 µM", "setting": "[7]; CSNK1A1L", "value": 100, "unit": "%"}, {"measurement": "remaining activity at 0.1 µM", "setting": "[8]; CSNK1D", "value": 100, "unit": "%"}, {"measurement": "remaining activity at 0.1 µM", "setting": "[9]; CSNK1G3", "value": 99, "unit": "%"}, {"measurement": "remaining activity at 0.1 µM", "setting": "[10]; DDR1", "value": 100, "unit": "%"}, {"measurement": "remaining activity at 0.1 µM", "setting": "[11]; ERBB3", "value": 100, "unit": "%"}, {"measurement": "remaining activity at 0.1 µM", "setting": "[12]; FES", "value": 100, "unit": "%"}, {"measurement": "remaining activity at 0.1 µM", "setting": "[13]; IRAK3", "value": 96, "unit": "%"}, {"measurement": "remaining activity at 0.1 µM", "setting": "[14]; JNK3", "value": 83, "unit": "%"}, {"measurement": "remaining activity at 0.1 µM", "setting": "[15]; KIT", "value": 100, "unit": "%"}, {"measurement": "remaining activity at 0.1 µM", "setting": "[16]; LRRK2(G2019S)", "value": 100, "unit": "%"}, {"measurement": "remaining activity at 0.1 µM", "setting": "[17]; MAK", "value": 100, "unit": "%"}, {"measurement": "remaining activity at 0.1 µM", "setting": "[18]; MAP3K2", "value": 99, "unit": "%"}, {"measurement": "remaining activity at 0.1 µM", "setting": "[19]; MARK1", "value": 100, "unit": "%"}, {"measurement": "remaining activity at 0.1 µM", "setting": "[20]; NEK4", "value": 100, "unit": "%"}, {"measurement": "remaining activity at 0.1 µM", "setting": "[21]; OSR1", "value": 88, "unit": "%"}, {"measurement": "remaining activity at 0.1 µM", "setting": "[22]; p38-gamma", "value": 100, "unit": "%"}, {"measurement": "remaining activity at 0.1 µM", "setting": "[23]; PHKG1", "value": 100, "unit": "%"}, {"measurement": "remaining activity at 0.1 µM", "setting": "[24]; PIP5K1C", "value": 100, "unit": "%"}, {"measurement": "remaining activity at 0.1 µM", "setting": "[25]; SRPK1", "value": 100, "unit": "%"}, {"measurement": "remaining activity at 0.1 µM", "setting": "[26]; TAOK3", "value": 92, "unit": "%"}]}, {"smiles": "CN(C[C@H](Cc1ccccc1)OP(=O)(O)O)C(=O)c1cncc(C#Cc2cnn(C(F)F)c2)c1", "note": "[Example 19, (S)-1-(5-((1-(difluoromethyl)-1H-pyrazol-4-yl)ethynyl)-N-methylnicotinamido)-3-phenylpropan-2-yl dihydrogen phosphate]", "values": [{"measurement": "Number of Hits S(1)", "setting": "[1]", "value": 0}, {"measurement": "Number of Hits S(10)", "setting": "[1]", "value": 0}, {"measurement": "Number of Hits S(35)", "setting": "[1]", "value": 0}, {"measurement": "remaining activity at 0.1 µM", "setting": "[2]", "value": 100, "unit": "%"}, {"measurement": "remaining activity at 0.1 µM", "setting": "[3]", "value": 97, "unit": "%"}, {"measurement": "remaining activity at 0.1 µM", "setting": "[4]", "value": 100, "unit": "%"}, {"measurement": "remaining activity at 0.1 µM", "setting": "[5]", "value": 100, "unit": "%"}, {"measurement": "remaining activity at 0.1 µM", "setting": "[6]", "value": 100, "unit": "%"}, {"measurement": "remaining activity at 0.1 µM", "setting": "[7]", "value": 97, "unit": "%"}, {"measurement": "remaining activity at 0.1 µM", "setting": "[8]", "value": 100, "unit": "%"}, {"measurement": "remaining activity at 0.1 µM", "setting": "[9]", "value": 100, "unit": "%"}, {"measurement": "remaining activity at 0.1 µM", "setting": "[10]", "value": 100, "unit": "%"}, {"measurement": "remaining activity at 0.1 µM", "setting": "[11]", "value": 100, "unit": "%"}, {"measurement": "remaining activity at 0.1 µM", "setting": "[12]", "value": 100, "unit": "%"}, {"measurement": "remaining activity at 0.1 µM", "setting": "[13]", "value": 92, "unit": "%"}, {"measurement": "remaining activity at 0.1 µM", "setting": "[14]", "value": 86, "unit": "%"}, {"measurement": "remaining activity at 0.1 µM", "setting": "[15]", "value": 99, "unit": "%"}, {"measurement": "remaining activity at 0.1 µM", "setting": "[16]", "value": 93, "unit": "%"}, {"measurement": "remaining activity at 0.1 µM", "setting": "[17]", "value": 100, "unit": "%"}, {"measurement": "remaining activity at 0.1 µM", "setting": "[18]", "value": 95, "unit": "%"}, {"measurement": "remaining activity at 0.1 µM", "setting": "[19]", "value": 96, "unit": "%"}, {"measurement": "remaining activity at 0.1 µM", "setting": "[20]", "value": 100, "unit": "%"}, {"measurement": "remaining activity at 0.1 µM", "setting": "[21]", "value": 89, "unit": "%"}, {"measurement": "remaining activity at 0.1 µM", "setting": "[22]", "value": 88, "unit": "%"}, {"measurement": "remaining activity at 0.1 µM", "setting": "[23]", "value": 100, "unit": "%"}, {"measurement": "remaining activity at 0.1 µM", "setting": "[24]", "value": 85, "unit": "%"}, {"measurement": "remaining activity at 0.1 µM", "setting": "[25]", "value": 100, "unit": "%"}, {"measurement": "remaining activity at 0.1 µM", "setting": "[26]", "value": 85, "unit": "%"}]}]}
